Tests used:
[1] = system: SH-SY5Y cells; assay: Effect on Aβ25-35 peptide-induced cell death (MTT assay); type: cell-based; conditions: Homo sapiens, read-out: increase in cell viability
Experimental: Lyophilized synthetic Aβ25-35 peptide was dissolved in sterile water at a concentration of 2 mM, aliquoted and kept at -80°C until use. Aliquots were diluted in culture medium to achieve a final concentration of 30 µM and incubated for 72h at 37°C to form aggregated amyloid. SH-SY5Y cells were seeded in 96-well culture plates at a density of 12 × 10^4 cells per well in DMEM/F12 (1 :1) medium supplemented with 10% fetal bovine serum, 1X non-essential amino acids, 100 units/ml penicillin and 10 mg/ml streptomycin (Dutscher, France). Cultures were kept under a CO2/air (5%/95%) humidified atmosphere at 37°C. After 24h of incubation, the cultures were treated with 100 µl of the compound BIGI-3h or DMSO (0.1%) in DMEM/F12 (1:1) medium supplemented with 1% fetal bovine serum, 1X non-essential amino acids, 100 units/ml penicillin and 10 mg/ml streptomycin. After 24h of treatment, cells were co-incubated with Aβ25-35 peptide (30 µM) with or without the compound BIGI-3h for an additional period of 24h. MTT assay, a common colorimetric assay for assessing cell metabolic activity, was performed as described below.
The cell viability was assessed by measuring the reduction of MTT (3-(4,5-dimethylthiazol-2-yl)-2,5-diphenyltetrazolium bromide) to a formazan product. […] The absorbance at 570 nm and 630 nm (background) was measured using a microplate reader.

[2] = system: mice; assay: Object Recognition task (ORT), scopolamine-induced memory impairment; type: in vivo
Experimental: For behavioural studies, 50 swiss female 10-week-old weighing 25-30 g were used. Memory impairment was induced by the potent antimuscarinic drug scopolamine hydrobromide (0.5 mg/kg, Sigma) dissolved in saline buffer. To explore the potential of BIGI-3h as a cognitive enhancer, the compound was administered at a dose of 1 mg/kg and 10 mg/kg. For comparison, the antiamnesic effect of donepezil was tested (Tocris Bioscience, R&D Systems Inc.) at a dose of 1 mg/kg. Both products, 3h and donepezil, were dissolved in saline buffer containing 3.6% dimethyl sulfoxide. All drug solutions were independently prepared immediately before their use and were administered intraperitoneally in 10 mL/kg of vehicle volume. Different batches of mice were used for each experiment. The animals were distributed into 5 experimental groups (I-V): control groups (I) mice administered 3.6% DMSO in saline buffer, labelled as "control vehicle"; experimental groups (II-V) consisted of (II) mice administered scopolamine dissolved in 3.6% DMSO in saline buffer, labelled as "scop/DMSO," (III) mice co-administered scopolamine plus Donepezil, labelled as "Scopo/donep," (IV) and (V) mice co-administrated scopolamine plus BIGI-3h at 1mg/Kg and 10mg/Kg labelled respectively "Scopo/3h 1" "Scopo/3h 10".
Spontaneous object recognition was tested as described previously, 28 with slight modifications. All behavioural experiments took place during the light phase of the 12-h light/ dark cycle between 10 am and 3 pm to minimize the influence of circadian rhythm, and they were conducted with the investigators blind to treatments. […] The total time spent in active exploration of each object during T1 and T2 was determined with a computerized tracking system and image analyzer (Ethovision XT, Noldus Information Technology) that tracked the nose, centre and tail points of each mouse^45. As a criterion of active object exploration, it was measured the time spent by the animal directing its nose to the object at a distance of less than 2 cm and/or touching it with the vibrissae or nose. […]

## CCOC(=O)C1=C(C)N(CCC2CCN(Cc3ccccc3)CC2)C(=O)NC1c1coc2c(Cl)cc(Cl)cc2c1=O (racemic) [BIGI-3h, ethyl 1-(2-(1-benzylpiperidin-4-yl)ethyl)-4-(6,8-dichloro-4-oxo-4H-chromen-3-yl)-6-methyl-2-oxo-1,2,3,4-tetrahydropyrimidine-5-carboxylate]
[1]
  viability at 10 µM: 40.4%
  viability at 20 µM: 61.4%
[2]; 1 mg/kg intraperitoneally with scopolamine 0.5 mg/kg
  recognition index / discrimination index (Figure 5): reversed the short-term memory impairment induced by scopolamine
[2]; 10 mg/kg intraperitoneally with scopolamine 0.5 mg/kg, **p < 0.01 vs scopo/DMSO
  recognition index / discrimination index (Figure 5): significantly improved discrimination index
